Measured values: patent publication US8236339B2, “Therapeutic delivery of carbon monoxide” (priority 2001, dated 2012)
Marks after values point to notes of the source that are not given here.

Experiments:
[1] = Systemic blood pressure and heart rate in anaesthetised Sprague-Dawley rats; assay type: in vivo, rat
Method: Adult male Sprague-Dawley rats (280-350 g, 8-10 weeks of age) were bred in-house at the Northwick Park Institute for Medical Research (Harrow, UK). Rats were housed in groups of 3 in cages under a 12 h cycle of day/night, with free access to drinking water and fed ad libitum. All surgical procedures were performed in compliance with U.K. Home Office regulations. Rats were anaesthetised in a polycarbonate chamber in a stream of Enflurane™ (Abbot, UK) in oxygen before being transferred onto a mask and continuously supplied with Enflurane™ throughout the experiment with an anaesthetic machine (Aimed, UK). During the surgical procedure the rats were kept at a constant body temperature of 37° C. using a heat pad positioned underneath the operating surface. Specially designed femoral artery and venous catheters were then surgically implanted as previously described (see ref. 40). The catheter in the artery was connected via a luer connector and a three-way tap to a pressure transducer (Gould model P23ID, Statham, USA) for continuous mean arterial pressure (MAP) and heart rate (HR) monitoring. A purpose-built tail-cuff pressure transducer (ADInstruments, UK) was also placed on the tail of the rat and pressure transducer and tail cuff were connected to a polygraph recorder (Grass, Model 7D, Astra-med, UK) pre-calibrated in millimeters of mercury (mmHg). An analogue output provided data for a computer-based data acquisition system (PowerLab™, ADInstruments, UK). The computer-based system was set to record mean arterial pressure (MAP), in mmHg, and heart rate (HR), in beats/min (bpm), for the duration of the experiment. […] Once a stable pressure had been reached, each catheter was flushed with saline containing heparin and no further changes were made to the anaesthetic supply. Ru(CO)3Cl(glycinato) (CO-RM-3) was prepared in stock solutions of 20, 60 and 120 μmoles·ml^−1 by solubilizing the compound in saline. […] CO-RM-3 (or the negative control) was then infused into the animal via the femoral vein catheter as a bolus so that the final concentration infused was 10, 30 or 60 μmoles·kg^−1 body weight. Throughout the experiment MAP and HR were continuously recorded and monitored. Although concentrations of 10, 30 and 60 μmoles·kg^−1 were infused into each animal, the resulting concentrations in the animal were cumulative. Therefore, the final concentration attained in the animal was 10, 40 and 100 μmoles·kg^−1, respectively.
The results are presented in Table 2, where the data shown represents samples taken at baseline (just before infusion of the compound) and directly after administration of 10, 30 and 60 μmoles·kg^−1 of the compound. All data are mean i SEM. n=3 independent experiments. *P<0.05 vs. baseline.

[2] = system: deoxymyoglobin (deoxy-Mb); test: Myoglobin assay: conversion of deoxy-Mb to MbCO on direct addition of metal carbonyl; assay type: biochemical, horse; settings: direct addition to myoglobin solution (66 μM), no light
Method: The release of CO from metal carbonyl complexes was assessed spectrophotometrically by measuring the conversion of deoxymyoglobin (deoxy-Mb) to carbonmonoxy myoglobin (MbCO). MbCO has a distinctive absorption spectrum between 500 and 600 nm, and changes at 540 nm were used to quantify the amount of CO liberated. Myoglobin solutions (66 μM final concentration) were prepared freshly by dissolving the protein in 0.04 M phosphate buffer (pH 6.8). Sodium dithionite (0.1%) was added to convert myoglobin to deoxy-Mb prior to each reading. All the spectra were measured using a Helios a spectrophotometer.
Various metal carbonyl complexes were tested for their ability to elicit MbCO formation when added directly to a deoxy-Mb solution. To different extents, [Ru(CO)3Cl2]2, [Ru(CO)2(DMSO)2Cl2], [Ru(CO)3Cl2(cytosine)] and […] all released CO when added directly to the Mb solution.
The metal carbonyl complex was solubilized in DMSO (9.7 mM stock solution), aliquots of 2 to 32 μl were added directly to 1 ml of deoxy-Mb solutions (66 μM) and absorption spectrum determined immediately after mixing the samples by inversion.

[3] = system: RAW 264.7 macrophages; settings: 24 h, LPS 3 μg/ml with or without CO-RM-3 10, 50 and 100 μM
Method: Mouse RAW 264.7 macrophages were cultured in 24 wells using DMEM medium Confluent cells were incubated for 24 h with E. Coli lipopolysaccharide (LPS, 3 μg/ml) in the presence or absence of increasing concentrations of CO-RM-3 (10, 50 and 100 μM). Control cells were exposed to culture medium alone. […] Cell viability was also assessed in macrophages 24 h after treatment with the various agents as described in reference 47.

[4] = system: RAW 264.7 macrophages; test: Nitrite (NO) production in LPS-stimulated macrophages, Griess reagent method; assay type: cell-based, mouse; settings: 10, 50 and 100 μM, 24 h with LPS 3 μg/ml
Source text: Control cells were exposed to culture medium alone.

[5] = system: aortic rings pre-contracted with phenylephrine; test: Relaxation of isolated aortic rings pre-contracted with phenylephrine; set-up: species or system rat
Method: Transverse ring sections of thoracic aorta were isolated from male Lewis rats and suspended under a 2 g tension in an organ bath containing oxygenated Krebs-Henseleit buffer at 37° C. as previously described (23). The relaxation response to cumulative doses of metal carbonyl (dissolved in DMSO—see section 2) was assessed in aortic rings pre-contracted with phenylephrine (3 μM). Control rings were similarly treated by adding equal doses of DMSO (vehicle) to the organ bath.

[6] = Cardiac transplant rejection, BALB/c hearts into CBA mice; assay type: in vivo, mouse; settings: 40 mg/kg i.p. doses
Method: Hearts from male BALB/c mouse (25-30 g) were used as donor organs for transplantation into male CBA mice (25-30 g). Mice were housed in groups of 3 in cages under a 12 h cycle of day/night, with free access to drinking water and fed ad libitum. All surgical procedures were performed in compliance with U.K. Home Office regulations. Animals were anaesthetized by an intraperitoneal injection of ketamine/xylazine during all procedures. The surgical technique involved the transplantation of the cardiac allograft into the recipient's neck as previously described (51). Graft survival was assessed daily by palpation, and rejection was diagnosed by cessation of ventricular contractions.
Ru(CO)3Cl(glycinato) was dissolved in 0.1 ml saline and administered intraperitoneally. All doses are 40 mg/kg of Ru(CO)3Cl(glycinato). The donors received two doses of Ru(CO)3Cl(glycinato) respectively at 1 day and 15 min prior to cardiac harvest. The recipients received doses of Ru(CO)3Cl(glycinato) at 1 day before surgery, 30 min prior to cardiac reperfusion and 1 h after transplantation (Day 0). Thereafter, graft recipients received a daily dose of Ru(CO)3Cl(glycinato) from day 1 to day 8(inclusive) post-transplant. In the control group, recipients received an equivalent dose of saline (vehicle) 1 day before and each day (days 1 to 8) after cardiac transplantation. Carprofen (0.01 mg) was given subcutaneously for pain relief immediately after transplantation to all animals. The results of this study are shown in FIG. 10. n=5 for each group. *p<0.002 vs. control. BALE/c hearts transplanted into CBA mice following treatment with saline (control group) underwent rejection'very rapidly. 100% of hearts stopped beating within 9 days of transplantation.

[7] = directly after i.v. bolus 10 μmol/kg
[8] = directly after i.v. bolus 30 μmol/kg (cumulative 40)
[9] = cumulative doses, phenylephrine 3 μM

## NCC(=O)O.[C-]#[O+].[C-]#[O+].[C-]#[O+].[Cl][Ru] [CO-RM-3, Ru(CO)3Cl (NH2CH2CO2)]
[1]; 10 μmoles·kg^−1 bolus infusion
  transient decrease in MAP: 6±2 mmHg
[1]; 30 μmoles·kg^−1 bolus infusion
  transient decrease in MAP: 8±3 mmHg
[1]; 60 μmoles·kg^−1 bolus infusion
  transient decrease in MAP: 14±0.3 mmHg
[1]; 10, 30 or 60 μmoles·kg^−1
  effects on HR or MAP (in words): concentration-dependent transient decrease in MAP
[1]; after bolus infusion
  period of return of MAP to baseline: 10 min
[1]; [7]
  HR, 10 μmol.kg^−1: 276 ± 20 bpm
  MAP, 10 μmol.kg^−1: 73 ± 2 mmHg
[1]; [8]
  HR, 30 μmol.kg^−1: 261 ± 22 bpm
  MAP, 30 μmol.kg^−1: 72 ± 7 mmHg
[1]; directly after i.v. bolus 60 μmol/kg (cumulative 100)
  MAP, 60 μmol.kg^−1: 65 ± 4* mmHg
[1]; directly after i.v. bolus 60 μmol/kg (cumulative 100), listed as Ru(CO)3Cl(glycinate)
  HR, 60 μmol.kg^−1: 253 ± 23 bpm
[1]; directly after i.v. bolus 60 μmol/kg (cumulative 100), listed as Ru(CO)3Cl(glycinato)
  HR, 60 μmol.kg^−1: 253±23 bpm
[1]; just before infusion of the compound
  MAP, Baseline: 79 ± 2 mmHg
[1]; just before infusion of the compound, listed as Ru(CO)3Cl(glycinate)
  HR, Baseline: 270 ± 20 bpm
[1]; just before infusion of the compound, listed as Ru(CO)3Cl(glycinato)
  HR, Baseline: 270±20 bpm
[2]; listed as [Bu(CO)3(glycinate)Cl]
  MbCO formation / CO release when added directly to deoxy-Mb solution: released CO
[2]; listed as [Ru(CO)3(glycinato)Cl]
  MbCO formation / CO release when added directly to deoxy-Mb solution: high release of CO
[3]
  cell viability of macrophages: did not affect cell viability
[4]
  nitrite generation in LPS-stimulated macrophages: significantly attenuated nitrite generation in a concentration dependent manner
[5]; consecutive additions
  vasodilatory effect on pre-contracted aortic rings (in words): elicited significant vasodilatation
[5]; [9]
  % Relaxation, 1st addition: 36%
  % Relaxation, 2nd addition: 66.6%
  % Relaxation, 3rd addition: 68.3%
[6]; vs. saline control
  survival time of transplanted hearts (in words): significantly prolonged
[6]; 18 days after transplantation
  hearts still beating: 100%
[6]; 25 days after heart transplantation
  mice without any sign of rejection: 60%
[6]; at 30 days
  transplanted hearts still viable: 40%
